In ChEMBL document CHEMBL1152560, “Substituted 2-arylbenzothiazoles as kinase inhibitors: hit-to-lead optimization” (Bioorg Med Chem, 2009):

What was measured:
Angiopoietin-1 receptor = Angiopoietin-1 receptor (Homo sapiens, UniProt Q02763); experiment: Residual activity of TIE2 at 10 uM by microplate scintillation counting
[1] = biological target: T1, MAP kinase-activated protein kinase 5 (Homo sapiens) (UniProt Q8IW41); experiment: Residual activity of MAPKAPK5 at 0.1 uM by microplate scintillation counting
T1 sequence (whole entry): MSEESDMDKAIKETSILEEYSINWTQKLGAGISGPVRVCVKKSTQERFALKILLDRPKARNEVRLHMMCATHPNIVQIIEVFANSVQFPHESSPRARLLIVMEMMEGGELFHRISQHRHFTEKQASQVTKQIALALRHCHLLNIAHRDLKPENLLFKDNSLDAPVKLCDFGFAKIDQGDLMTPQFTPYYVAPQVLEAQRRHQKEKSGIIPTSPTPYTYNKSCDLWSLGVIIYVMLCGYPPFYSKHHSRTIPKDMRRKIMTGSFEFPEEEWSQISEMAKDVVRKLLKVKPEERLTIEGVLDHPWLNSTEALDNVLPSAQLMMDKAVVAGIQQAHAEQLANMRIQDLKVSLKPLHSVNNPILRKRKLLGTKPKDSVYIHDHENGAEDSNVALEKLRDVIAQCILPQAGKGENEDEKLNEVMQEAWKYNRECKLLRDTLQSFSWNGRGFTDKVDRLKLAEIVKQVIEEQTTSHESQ

[2] = biological target: T2, Serine/threonine-protein kinase Nek2 (Homo sapiens) (UniProt P51955); experiment: Residual activity of NEK2 at 1 uM by microplate scintillation counting
T2 sequence (whole entry): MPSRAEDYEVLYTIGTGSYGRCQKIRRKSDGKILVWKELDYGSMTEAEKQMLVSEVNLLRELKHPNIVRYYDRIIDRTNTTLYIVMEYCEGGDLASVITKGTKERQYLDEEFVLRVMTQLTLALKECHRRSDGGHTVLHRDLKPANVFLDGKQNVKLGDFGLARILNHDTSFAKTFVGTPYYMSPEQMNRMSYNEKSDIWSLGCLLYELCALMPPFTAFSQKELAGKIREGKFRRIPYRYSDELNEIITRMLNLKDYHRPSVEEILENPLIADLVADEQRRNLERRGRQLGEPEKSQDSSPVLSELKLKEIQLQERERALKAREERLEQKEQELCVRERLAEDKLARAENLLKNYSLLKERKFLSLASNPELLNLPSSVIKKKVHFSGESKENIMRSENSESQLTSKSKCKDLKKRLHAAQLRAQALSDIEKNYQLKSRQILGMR

[3] = biological target: Serine/threonine-protein kinase Nek7 (Homo sapiens) (UniProt Q8TDX7); experiment: Residual activity of NEK7 at 0.1 uM by microplate scintillation counting
Chain of Serine/threonine-protein kinase Nek7 (Homo sapiens) (Q8TDX7 whole entry, looked up): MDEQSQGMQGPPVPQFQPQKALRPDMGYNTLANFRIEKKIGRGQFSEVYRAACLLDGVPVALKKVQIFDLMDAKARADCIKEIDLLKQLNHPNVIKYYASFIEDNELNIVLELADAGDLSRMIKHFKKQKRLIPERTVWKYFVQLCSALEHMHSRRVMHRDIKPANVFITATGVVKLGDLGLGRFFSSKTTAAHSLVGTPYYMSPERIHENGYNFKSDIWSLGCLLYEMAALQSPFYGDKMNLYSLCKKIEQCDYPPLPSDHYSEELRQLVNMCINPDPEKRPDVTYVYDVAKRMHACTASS

[4] = biological target: T3, Serine/threonine-protein kinase 17A (Homo sapiens) (UniProt Q9UEE5); experiment: Residual activity of STK17A at 0.1 uM by microplate scintillation counting
T3 sequence (whole entry): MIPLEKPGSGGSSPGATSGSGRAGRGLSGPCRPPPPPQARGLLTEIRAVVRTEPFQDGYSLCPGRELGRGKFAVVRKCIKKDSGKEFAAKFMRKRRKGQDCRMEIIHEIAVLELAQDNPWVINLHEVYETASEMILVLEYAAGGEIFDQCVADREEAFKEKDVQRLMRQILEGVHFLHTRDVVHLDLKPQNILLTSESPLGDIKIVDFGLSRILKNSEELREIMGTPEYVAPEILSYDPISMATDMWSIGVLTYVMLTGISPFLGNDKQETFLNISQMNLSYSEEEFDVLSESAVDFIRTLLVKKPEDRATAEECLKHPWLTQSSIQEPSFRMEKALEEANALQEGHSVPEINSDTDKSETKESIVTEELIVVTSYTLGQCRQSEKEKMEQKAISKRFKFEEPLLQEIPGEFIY

[5] = biological target: Tyrosine-protein kinase SYK (Homo sapiens) (UniProt P43405); experiment: Residual activity of SYK at 0.1 uM by microplate scintillation counting
[6] = biological target: Ribosomal protein S6 kinase alpha-1 (Homo sapiens) (UniProt Q15418); experiment: Residual activity of RPS6KA1 at 1 uM by microplate scintillation counting
Chain of Ribosomal protein S6 kinase alpha-1 (Homo sapiens) (Q15418 whole entry): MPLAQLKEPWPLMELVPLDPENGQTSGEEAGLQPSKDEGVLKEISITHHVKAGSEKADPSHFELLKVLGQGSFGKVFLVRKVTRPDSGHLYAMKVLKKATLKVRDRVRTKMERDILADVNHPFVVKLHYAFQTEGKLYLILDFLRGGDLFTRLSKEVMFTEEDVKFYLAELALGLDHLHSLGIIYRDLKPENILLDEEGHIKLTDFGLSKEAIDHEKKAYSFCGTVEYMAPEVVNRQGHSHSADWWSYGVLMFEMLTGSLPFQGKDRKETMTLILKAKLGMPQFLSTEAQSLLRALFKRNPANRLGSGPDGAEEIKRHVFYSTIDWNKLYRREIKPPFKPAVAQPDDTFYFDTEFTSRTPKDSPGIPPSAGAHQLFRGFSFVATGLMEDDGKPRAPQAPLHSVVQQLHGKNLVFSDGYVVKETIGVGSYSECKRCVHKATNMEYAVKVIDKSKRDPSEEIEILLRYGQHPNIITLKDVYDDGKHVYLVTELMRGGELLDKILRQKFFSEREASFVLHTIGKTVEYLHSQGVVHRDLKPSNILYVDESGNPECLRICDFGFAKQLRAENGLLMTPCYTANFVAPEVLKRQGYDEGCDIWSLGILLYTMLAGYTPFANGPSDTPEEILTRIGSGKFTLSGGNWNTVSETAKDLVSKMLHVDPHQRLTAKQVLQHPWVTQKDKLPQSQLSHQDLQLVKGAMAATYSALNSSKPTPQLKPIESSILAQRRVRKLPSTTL

[7] = biological target: T4, Tyrosine-protein kinase ZAP-70 (Homo sapiens) (UniProt P43403); experiment: Residual activity of ZAP70 at 0.1 uM by microplate scintillation counting
T4 sequence (whole entry): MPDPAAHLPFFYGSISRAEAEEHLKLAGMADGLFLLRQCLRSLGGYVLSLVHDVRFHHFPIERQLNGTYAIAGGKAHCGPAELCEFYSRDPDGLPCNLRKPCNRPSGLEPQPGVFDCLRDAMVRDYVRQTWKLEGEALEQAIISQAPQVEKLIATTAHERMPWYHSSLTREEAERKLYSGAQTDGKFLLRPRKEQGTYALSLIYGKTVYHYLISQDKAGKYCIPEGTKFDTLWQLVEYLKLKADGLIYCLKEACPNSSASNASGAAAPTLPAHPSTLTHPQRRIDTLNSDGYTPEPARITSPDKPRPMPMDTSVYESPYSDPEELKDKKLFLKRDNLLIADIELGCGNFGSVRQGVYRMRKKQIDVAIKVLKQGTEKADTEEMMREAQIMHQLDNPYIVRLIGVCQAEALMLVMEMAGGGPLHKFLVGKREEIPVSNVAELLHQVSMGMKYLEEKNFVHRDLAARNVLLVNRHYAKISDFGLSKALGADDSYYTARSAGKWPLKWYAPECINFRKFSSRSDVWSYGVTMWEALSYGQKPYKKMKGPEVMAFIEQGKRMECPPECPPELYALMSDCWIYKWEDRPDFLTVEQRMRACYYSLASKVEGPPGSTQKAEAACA

[8] = biological target: T5, Aurora kinase A (Homo sapiens) (UniProt O14965); experiment: Residual activity of Aurora-A at 0.1 uM by microplate scintillation counting
T5 sequence (whole entry): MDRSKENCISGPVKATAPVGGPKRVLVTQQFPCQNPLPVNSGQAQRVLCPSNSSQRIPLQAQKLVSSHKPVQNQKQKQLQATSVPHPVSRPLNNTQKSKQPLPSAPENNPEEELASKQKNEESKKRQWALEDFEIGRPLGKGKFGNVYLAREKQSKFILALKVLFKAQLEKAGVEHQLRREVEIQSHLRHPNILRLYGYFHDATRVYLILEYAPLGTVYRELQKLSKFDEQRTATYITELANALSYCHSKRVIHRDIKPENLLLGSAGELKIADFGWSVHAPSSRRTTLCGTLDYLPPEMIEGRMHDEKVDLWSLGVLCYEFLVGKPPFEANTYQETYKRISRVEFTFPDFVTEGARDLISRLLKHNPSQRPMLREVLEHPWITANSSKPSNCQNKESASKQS

[9] = biological target: Interferon-induced, double-stranded RNA-activated protein kinase (Homo sapiens) (UniProt P19525); experiment: Residual activity of EIF2AK2 at 10 uM by microplate scintillation counting
Chain of Interferon-induced, double-stranded RNA-activated protein kinase (Homo sapiens) (P19525 whole entry): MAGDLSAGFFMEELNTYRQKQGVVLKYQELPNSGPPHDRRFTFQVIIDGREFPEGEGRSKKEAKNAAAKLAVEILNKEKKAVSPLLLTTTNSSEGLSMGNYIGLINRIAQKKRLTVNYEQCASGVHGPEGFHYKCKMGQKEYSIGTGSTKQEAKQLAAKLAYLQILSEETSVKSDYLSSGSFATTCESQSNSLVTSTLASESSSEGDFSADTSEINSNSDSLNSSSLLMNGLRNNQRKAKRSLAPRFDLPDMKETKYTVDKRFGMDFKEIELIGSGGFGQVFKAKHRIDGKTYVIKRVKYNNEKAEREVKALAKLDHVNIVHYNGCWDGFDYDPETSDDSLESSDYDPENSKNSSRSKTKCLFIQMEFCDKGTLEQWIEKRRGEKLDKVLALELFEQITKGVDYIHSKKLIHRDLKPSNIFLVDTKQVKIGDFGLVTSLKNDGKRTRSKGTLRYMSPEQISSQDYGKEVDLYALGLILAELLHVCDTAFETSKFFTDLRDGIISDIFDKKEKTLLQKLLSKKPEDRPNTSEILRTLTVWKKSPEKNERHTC

[10] = biological target: Dual specificity protein kinase CLK1 (Homo sapiens) (UniProt P49759); experiment: Residual activity of CLK1 at 1 uM by microplate scintillation counting
Chain of Dual specificity protein kinase CLK1 (Homo sapiens) (P49759 whole entry, looked up): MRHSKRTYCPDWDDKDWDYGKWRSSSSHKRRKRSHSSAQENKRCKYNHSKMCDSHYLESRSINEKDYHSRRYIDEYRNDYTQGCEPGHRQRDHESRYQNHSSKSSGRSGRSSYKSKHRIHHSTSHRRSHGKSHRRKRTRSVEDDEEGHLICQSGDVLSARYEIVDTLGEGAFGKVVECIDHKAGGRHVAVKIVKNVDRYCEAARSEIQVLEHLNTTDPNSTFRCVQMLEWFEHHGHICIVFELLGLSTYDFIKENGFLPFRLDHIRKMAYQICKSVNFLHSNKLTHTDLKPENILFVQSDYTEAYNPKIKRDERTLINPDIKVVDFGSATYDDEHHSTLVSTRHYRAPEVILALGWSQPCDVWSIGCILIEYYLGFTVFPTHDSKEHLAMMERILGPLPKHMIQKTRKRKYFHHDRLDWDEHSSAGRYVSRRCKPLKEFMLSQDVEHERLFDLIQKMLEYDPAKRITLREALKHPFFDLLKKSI

[11] = biological target: Tyrosine-protein kinase ABL1 (Homo sapiens) (UniProt P00519); experiment: Residual activity of wild type ABL1 at 1 uM by microplate scintillation counting
Chain of Tyrosine-protein kinase ABL1 (Homo sapiens) (P00519 whole entry): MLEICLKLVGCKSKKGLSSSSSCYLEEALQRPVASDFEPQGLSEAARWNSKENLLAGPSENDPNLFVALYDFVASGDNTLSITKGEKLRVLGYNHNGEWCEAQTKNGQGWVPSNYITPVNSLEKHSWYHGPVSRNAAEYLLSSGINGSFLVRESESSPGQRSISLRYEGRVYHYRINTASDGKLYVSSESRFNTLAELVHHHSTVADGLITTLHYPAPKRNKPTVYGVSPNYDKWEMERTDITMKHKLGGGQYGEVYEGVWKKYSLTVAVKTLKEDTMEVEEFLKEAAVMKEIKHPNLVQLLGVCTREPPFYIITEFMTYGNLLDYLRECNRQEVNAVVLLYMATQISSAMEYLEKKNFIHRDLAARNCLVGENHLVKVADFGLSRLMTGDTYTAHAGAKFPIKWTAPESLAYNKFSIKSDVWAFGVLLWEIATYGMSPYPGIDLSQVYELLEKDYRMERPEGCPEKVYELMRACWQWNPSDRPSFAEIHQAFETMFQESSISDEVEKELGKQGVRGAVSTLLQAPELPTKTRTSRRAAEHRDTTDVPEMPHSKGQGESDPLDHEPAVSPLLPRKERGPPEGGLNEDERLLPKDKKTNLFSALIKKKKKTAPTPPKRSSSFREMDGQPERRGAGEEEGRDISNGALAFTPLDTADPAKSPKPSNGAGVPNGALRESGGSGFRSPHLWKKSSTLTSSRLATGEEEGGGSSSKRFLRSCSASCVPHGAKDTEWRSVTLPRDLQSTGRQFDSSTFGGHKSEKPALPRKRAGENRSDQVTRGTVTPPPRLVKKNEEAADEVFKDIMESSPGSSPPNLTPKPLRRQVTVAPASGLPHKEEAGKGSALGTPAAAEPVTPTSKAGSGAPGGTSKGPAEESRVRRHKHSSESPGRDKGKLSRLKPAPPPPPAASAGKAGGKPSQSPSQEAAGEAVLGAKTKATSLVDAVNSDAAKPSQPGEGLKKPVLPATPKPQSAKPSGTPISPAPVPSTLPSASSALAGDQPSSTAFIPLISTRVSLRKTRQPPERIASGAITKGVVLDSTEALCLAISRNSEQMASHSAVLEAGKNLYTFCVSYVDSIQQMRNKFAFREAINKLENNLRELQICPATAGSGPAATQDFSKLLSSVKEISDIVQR

Chain of Angiopoietin-1 receptor (Q02763 whole entry): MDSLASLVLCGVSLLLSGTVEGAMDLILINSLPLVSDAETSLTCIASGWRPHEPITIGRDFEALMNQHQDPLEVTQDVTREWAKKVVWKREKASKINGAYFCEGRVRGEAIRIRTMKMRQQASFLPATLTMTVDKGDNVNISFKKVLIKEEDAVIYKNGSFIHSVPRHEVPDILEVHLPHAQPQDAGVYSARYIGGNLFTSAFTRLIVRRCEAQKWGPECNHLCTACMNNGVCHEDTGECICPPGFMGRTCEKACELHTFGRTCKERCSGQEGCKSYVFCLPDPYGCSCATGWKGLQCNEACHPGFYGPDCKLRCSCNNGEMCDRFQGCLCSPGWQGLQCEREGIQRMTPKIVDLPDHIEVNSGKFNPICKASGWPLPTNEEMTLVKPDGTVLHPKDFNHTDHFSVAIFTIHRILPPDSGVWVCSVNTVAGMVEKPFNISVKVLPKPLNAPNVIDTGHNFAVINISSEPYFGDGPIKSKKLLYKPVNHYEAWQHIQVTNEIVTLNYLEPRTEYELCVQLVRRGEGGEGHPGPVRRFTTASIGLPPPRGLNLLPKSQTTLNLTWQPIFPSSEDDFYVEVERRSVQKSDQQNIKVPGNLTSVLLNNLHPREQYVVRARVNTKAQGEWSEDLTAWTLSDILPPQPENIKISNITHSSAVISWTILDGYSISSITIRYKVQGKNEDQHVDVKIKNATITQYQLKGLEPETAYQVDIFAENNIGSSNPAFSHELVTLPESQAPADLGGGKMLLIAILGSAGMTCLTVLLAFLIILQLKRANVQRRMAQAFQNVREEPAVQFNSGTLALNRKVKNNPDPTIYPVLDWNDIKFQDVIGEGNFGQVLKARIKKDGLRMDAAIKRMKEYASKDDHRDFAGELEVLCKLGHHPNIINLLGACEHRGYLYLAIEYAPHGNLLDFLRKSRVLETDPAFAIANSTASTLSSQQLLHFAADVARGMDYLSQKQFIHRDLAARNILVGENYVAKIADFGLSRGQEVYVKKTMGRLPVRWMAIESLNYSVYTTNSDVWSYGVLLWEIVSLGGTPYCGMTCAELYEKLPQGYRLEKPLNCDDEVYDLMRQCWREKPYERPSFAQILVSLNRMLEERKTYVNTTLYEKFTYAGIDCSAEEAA

SMILES | residual activity (Angiopoietin-1 receptor) | residual activity [1] | residual activity [2] | residual activity [3] | residual activity [4] | residual activity [5] | residual activity [6] | residual activity [7] | residual activity [8] | residual activity [9] | residual activity [10] | residual activity [11]
COc1cc2c(Oc3ccc(-c4nc5ccccc5s4)cc3)ncnc2cc1OCCCN1CCN(C)CC1 | 3% | 124% | 81% | 83% | 66% | 96% | 78% | 112% | 52% | 21% | 99% | 99%
COc1cc2c(Oc3ccc(-c4nc5ccccc5s4)cc3F)ncnc2cc1OCCCN1CCN(C)CC1 | 4% | 95% | 89% | 97% | 87% | 97% | 88% | 108% | 65% | 28% | 104% | 110%
COc1cc2c(Oc3ccc(-c4nc5ccccc5s4)cc3)ncnc2cc1OCCCN1CCCC1 | 4% | 97% | 89% | 95% | 66% | 103% | 74% | 111% | 68% | 27% | 107% | 100%
